These results are taken from ChEMBL document CHEMBL1135473, “Synthesis of (+)-cis-N-(4-isothiocyanatobenzyl)-N-normetazocine, an isothiocyanate derivative of N-benzylnormetazocine as acylant agent for the sigma(1) receptor” (J Med Chem, 2002).

For assay [1], the target named is Sigma non-opioid intracellular receptor 1 (Homo sapiens) (UniProt Q99720). The following applies: Cavia porcellus; 5 uM.
The target is the same in assay [2]. The conditions noted are these: Cavia porcellus; 0.1 uM.
Description: Maximum binding capacity against Sigma opioid receptor type 2 at 0.1 uM BNIT
The target is the same in assay [3]. The conditions noted are these: Cavia porcellus; 1 uM.
Assay [4] has the same target. The conditions noted are these: Cavia porcellus; 0.1 uM. The source holds these as a separate data set.
Assay [5] shares this target. The conditions noted are these: Cavia porcellus; 0.1 uM. This is another data set of the same source.
Assay [6] has the same target. The following applies: Cavia porcellus; 0.1 uM. This is another data set of the same source.
Description: Maximum binding capacity against Sigma opioid receptor type 1 at 0.1 uM BNIT
Assay [7] shares this target. The following applies: Cavia porcellus; 200 nM.

Sigma non-opioid intracellular receptor 1 (Homo sapiens), sequence (Q99720 whole entry): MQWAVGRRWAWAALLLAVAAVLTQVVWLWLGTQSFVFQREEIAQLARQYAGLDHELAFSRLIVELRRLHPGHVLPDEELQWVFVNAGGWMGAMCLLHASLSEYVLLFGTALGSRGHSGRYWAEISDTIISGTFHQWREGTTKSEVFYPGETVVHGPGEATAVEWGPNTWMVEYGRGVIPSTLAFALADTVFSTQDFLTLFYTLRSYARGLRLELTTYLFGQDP

As to `Cc1ccccc1NC(=N)Nc1ccccc1C`, the Bmax in assay [1] is 957 fmol/mg; in assay [3] it was 1010 fmol/mg. This compound registered a Bmax2 in assay [2] of 1330. This compound also yielded a Kd2 in assay [4] of 21.4 nM. Moreover, in assay [5], the Kd1 was 12.8 nM. The compound also had a Bmax1 in assay [6] of 674.

As for `CC(C)=CCN1CC[C@]2(C)c3cc(O)ccc3C[C@H]1[C@H]2C`, the Bmax in assay [7] was 1120 fmol/mg.
